Reference: patent US8686224B2, “Plant defense signal peptides” (priority 2005, dated 2014)
“Also recorded” adds a separate entry of the source.

Key:
[1] = system: Arabidopsis suspension cultured cells; test: Alkalinization assay with Arabidopsis suspension cultured cells; format: cell-based, Arabidopsis thaliana; details: Arabidopsis suspension cultured cells, pH of media after 20 min
Protocol: For the alkalinization assay, cells suspensions are grown in a volume of 40 ml in a 125 ml flask. Tobacco and Arabidopsis cells are typically grown for 3-5 days before use. Tomato cells are typically grown for 4-7 days before use. Soybean cells are generally grown for 3-7 days before use. Preferably, cells are in mid to log or log phase when they are to be used for the alkalinization assay. A 1 ml pipette tip with the end cut off (to prevent clogging of the tip with the cells) is used to aliquot 1 ml of the cells from the suspension into a well in a 24-well culture cluster plate. The flask is swirled between aliquots to ensure that the cells remain evenly dispersed throughout the cell suspension and an roughly equivalent number of cells is provided to each well. The plate(s) are then shaken at 160 rpm for 1 hour. Small aliquots ([…]) of extracted peptide fractions are then added to the wells. After 20 min, the pH of the cell media is measured and recorded.
Alkalinization Assay. Arabidopsis suspension cells were grown with shaking in the dark in 125 mL flasks, using 40 mL NT media as previously described (Pearce et al. Proc. Natl. Acad. Sci. USA 98:12843-12847, 2001). The cells were transferred weekly (2.5 mL) and used for assays 3-5 days after transfer. One mL aliquots of cells were transferred to wells of 24-well culture plates and allowed to equilibrate for one hour while agitated on a rotary shaker at 160 rpm. Aliquots of 1-10 μL from extracts or fractions eluted from HPLC columns were added to cells and the pH of the media was monitored after 20 min.
Alkalinization assay. Medium alkalinization activity of Arabidopsis suspension cultured cells by AtPep1 analogs was analyzed as previously described for systemin (Pearce et al., Science 253:895-897, 1991), RALF (Pearce et al. Proc. Natl. Acad. Sci. USA 98:12843-12847, 2001), HypSys peptides (Pearce and Ryan. J. Biol. Chem. 278:30044-30050, 2003; Pearce et al., Nature 411:817-820, 2001), and AtPep1 (supra). The alkalinization activity of azido-Cys-AtPep1 were carried out after incubation the analog with cells in darkness for 10 min, when the pH was recorded.
Analogs of AtPep1 from the C-terminus of AtPep1 were synthesized and assayed in the alkalinization assay. One mL aliquots of 4 day old Arabidopsis cells were allowed to equilibrate on an orbital shaker at 180 rpm for one hour. A 10 μL aliquot of each peptide solution was added to the cells. Peptide concentrations of 0.25 nM, 2.5 nM, and 25 nM were tested. After 20 min, the pH of the media was recorded.
The 15-mer from the carboxy-terminus of AtPep1 ([…] (SEQ ID NO: 78)) was substituted with alanine at each position to assess which amino acids were necessary for the alkalinizing activity. […] The set of substituted 15-mer peptides was assayed using four-day-old Arabidopsis cells. […] of each peptide (2.5 pmoles) was added to 1 ml of cells to make a final concentration of 2.5 nM. After 20 min, the pH of the media was recorded. The data is the average of three separate experiments.

[2] = system: AtPEPR1 and AtPEPR2 transcripts; test: Expression analysis of AtPEPR1 and AtPEPR2 (Northern hybridization, quantitative RT-PCR); format: in vivo, Arabidopsis thaliana; details: within 30 min
Protocol: Expression analysis of AtPEPR1 and AtPEPR2. […] In order to elucidate the role of AtPEPR2 in AtPeps signal transduction, the gene expression patterns were analyzed in comparison with AtPEPR1.

H-ATKVKAKQRGKEKVSSGRPGQHN-OH [AtPep1]
activity in the alkalinization assay [1]: at sub-nanomolar concentrations, to cause an alkalinization response; also recorded: as active as the native AtPep1; also recorded: identical activities as the native peptides
EC50 ([1]; read-out: half-maximal activity in the alkalinization assay): 0.25 nM
induction of AtPEPR1 and AtPEPR2 transcripts [2]: strong inducer
